The values below come from US11572590B2, “Methods for evaluating tumor cell spheroids using 3D microfluidic cell culture device” (Dana-Farber Cancer Institute, Inc., priority 2017, dated 2023).

Experiment in all cases: SelectScreen Kinase Profiling, single point inhibition and IC50 for off-target kinases
Holding throughout (assay type): biochemical

Experiment [1] deals with off-target kinases (Homo sapiens, UniProt P04629). Particulars: NTRK1 (TRKA), ZLYTE, ATP Km app.
Experiment [2] deals with off-target kinases (Homo sapiens, UniProt P07949, M918T). Particulars: RET M918T, mutant y, LanthaScreen Binding.
Sequence of off-target kinases (Homo sapiens, UniProt P07949, M918T) (P07949 29-1114 M918T): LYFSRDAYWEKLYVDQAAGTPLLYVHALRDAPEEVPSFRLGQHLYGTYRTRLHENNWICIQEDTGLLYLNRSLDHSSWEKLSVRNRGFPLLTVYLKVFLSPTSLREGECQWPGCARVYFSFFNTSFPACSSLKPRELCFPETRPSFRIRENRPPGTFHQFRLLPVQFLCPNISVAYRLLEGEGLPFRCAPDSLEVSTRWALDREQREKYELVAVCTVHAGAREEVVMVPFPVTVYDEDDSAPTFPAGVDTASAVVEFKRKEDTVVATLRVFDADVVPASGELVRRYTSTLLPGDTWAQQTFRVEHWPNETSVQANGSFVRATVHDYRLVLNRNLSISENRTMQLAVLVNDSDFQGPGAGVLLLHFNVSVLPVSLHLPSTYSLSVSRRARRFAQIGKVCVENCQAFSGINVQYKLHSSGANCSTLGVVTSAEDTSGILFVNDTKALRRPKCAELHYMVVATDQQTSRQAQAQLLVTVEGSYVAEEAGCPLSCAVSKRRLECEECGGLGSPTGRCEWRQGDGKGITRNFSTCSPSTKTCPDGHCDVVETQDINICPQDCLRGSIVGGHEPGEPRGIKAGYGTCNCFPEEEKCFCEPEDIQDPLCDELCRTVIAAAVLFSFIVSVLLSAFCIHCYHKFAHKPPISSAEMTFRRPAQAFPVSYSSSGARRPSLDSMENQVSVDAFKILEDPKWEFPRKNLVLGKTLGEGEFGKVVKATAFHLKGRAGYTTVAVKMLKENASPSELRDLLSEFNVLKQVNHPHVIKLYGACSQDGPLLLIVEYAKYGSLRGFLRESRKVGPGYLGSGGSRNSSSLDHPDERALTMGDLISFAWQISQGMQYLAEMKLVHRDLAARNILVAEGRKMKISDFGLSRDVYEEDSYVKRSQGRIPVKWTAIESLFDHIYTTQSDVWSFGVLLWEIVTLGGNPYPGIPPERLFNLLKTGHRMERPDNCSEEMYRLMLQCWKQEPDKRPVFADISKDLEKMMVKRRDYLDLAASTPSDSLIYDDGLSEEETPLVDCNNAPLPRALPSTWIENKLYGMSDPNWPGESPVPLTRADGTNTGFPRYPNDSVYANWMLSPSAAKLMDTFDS
Experiment [3] has as its target off-target kinases (Homo sapiens, UniProt P10721, Y823D). To be noted: KIT Y823D, LanthaScreen Binding. A general note: In TR-FRET formats the signal depends on donor and acceptor labels being close together.
Experiment [4] concerns the target T1, off-target kinases (Homo sapiens, UniProt P52564, S207E/T211E).
T1 sequence (P52564 1-334 S207E/T211E): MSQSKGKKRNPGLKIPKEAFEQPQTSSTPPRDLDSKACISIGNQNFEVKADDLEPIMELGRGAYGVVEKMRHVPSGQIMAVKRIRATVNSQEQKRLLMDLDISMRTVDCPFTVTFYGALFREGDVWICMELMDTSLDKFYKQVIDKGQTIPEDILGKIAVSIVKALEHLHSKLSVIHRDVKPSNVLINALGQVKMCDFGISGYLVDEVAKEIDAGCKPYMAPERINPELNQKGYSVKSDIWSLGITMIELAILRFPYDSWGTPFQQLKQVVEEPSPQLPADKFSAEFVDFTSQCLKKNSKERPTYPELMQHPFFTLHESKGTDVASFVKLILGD
To be noted: MAP2K6 (MKK6) S207E T211E (mutant), LanthaScreen Binding.

The target in experiment [5] is off-target kinases (Homo sapiens, UniProt Q02779). Particulars: MAP3K10 (MLK2), LanthaScreen Binding.
The target of experiment [6] is off-target kinases (Homo sapiens, UniProt Q9UM73). To be noted: ALK, ZLYTE, ATP Km app.
Sequence of off-target kinases (Homo sapiens, UniProt Q9UM73) (Q9UM73 19-1620): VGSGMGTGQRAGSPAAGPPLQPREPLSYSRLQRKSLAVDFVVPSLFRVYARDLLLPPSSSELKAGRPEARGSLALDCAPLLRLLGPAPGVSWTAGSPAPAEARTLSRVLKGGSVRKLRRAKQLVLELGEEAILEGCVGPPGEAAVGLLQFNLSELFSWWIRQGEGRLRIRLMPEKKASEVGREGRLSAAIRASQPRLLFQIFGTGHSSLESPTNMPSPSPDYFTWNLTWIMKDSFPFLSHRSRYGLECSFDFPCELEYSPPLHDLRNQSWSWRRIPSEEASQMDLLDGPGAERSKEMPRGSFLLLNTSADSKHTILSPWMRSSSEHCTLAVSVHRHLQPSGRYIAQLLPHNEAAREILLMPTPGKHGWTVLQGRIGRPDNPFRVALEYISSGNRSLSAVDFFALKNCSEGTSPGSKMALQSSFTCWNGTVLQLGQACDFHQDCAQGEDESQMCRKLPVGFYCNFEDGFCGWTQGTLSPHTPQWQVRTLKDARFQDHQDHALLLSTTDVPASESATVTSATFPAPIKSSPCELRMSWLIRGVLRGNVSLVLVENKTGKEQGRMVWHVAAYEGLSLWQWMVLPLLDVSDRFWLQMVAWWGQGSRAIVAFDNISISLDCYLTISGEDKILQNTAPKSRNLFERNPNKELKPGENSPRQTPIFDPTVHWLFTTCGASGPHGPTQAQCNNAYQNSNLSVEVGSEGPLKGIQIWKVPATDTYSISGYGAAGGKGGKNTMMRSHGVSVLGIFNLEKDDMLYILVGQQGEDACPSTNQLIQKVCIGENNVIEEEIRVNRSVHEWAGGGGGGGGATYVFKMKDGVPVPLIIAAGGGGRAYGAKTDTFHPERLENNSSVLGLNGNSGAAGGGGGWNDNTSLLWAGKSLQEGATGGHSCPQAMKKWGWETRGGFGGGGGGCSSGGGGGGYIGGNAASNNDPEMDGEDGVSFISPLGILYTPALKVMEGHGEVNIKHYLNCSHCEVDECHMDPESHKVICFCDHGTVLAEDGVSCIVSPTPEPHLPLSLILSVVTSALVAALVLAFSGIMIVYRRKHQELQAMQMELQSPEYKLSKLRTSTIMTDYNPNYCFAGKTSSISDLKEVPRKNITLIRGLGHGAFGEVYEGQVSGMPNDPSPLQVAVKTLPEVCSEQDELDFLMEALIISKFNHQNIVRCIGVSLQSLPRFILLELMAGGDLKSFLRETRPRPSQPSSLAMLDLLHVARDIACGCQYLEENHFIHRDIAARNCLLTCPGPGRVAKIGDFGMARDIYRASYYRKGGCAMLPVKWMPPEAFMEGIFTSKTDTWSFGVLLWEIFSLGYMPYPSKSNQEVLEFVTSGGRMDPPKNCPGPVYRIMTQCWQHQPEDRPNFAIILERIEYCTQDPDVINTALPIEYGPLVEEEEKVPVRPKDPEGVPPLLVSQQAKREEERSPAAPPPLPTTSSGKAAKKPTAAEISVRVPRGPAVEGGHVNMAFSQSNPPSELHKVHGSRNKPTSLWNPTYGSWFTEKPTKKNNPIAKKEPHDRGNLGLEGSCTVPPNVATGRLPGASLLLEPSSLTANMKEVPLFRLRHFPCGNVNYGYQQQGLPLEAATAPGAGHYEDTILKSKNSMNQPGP

Read-outs that look alike come from different tables or passages of the source.

Sequence of off-target kinases (Homo sapiens, UniProt P04629) (P04629 33-796): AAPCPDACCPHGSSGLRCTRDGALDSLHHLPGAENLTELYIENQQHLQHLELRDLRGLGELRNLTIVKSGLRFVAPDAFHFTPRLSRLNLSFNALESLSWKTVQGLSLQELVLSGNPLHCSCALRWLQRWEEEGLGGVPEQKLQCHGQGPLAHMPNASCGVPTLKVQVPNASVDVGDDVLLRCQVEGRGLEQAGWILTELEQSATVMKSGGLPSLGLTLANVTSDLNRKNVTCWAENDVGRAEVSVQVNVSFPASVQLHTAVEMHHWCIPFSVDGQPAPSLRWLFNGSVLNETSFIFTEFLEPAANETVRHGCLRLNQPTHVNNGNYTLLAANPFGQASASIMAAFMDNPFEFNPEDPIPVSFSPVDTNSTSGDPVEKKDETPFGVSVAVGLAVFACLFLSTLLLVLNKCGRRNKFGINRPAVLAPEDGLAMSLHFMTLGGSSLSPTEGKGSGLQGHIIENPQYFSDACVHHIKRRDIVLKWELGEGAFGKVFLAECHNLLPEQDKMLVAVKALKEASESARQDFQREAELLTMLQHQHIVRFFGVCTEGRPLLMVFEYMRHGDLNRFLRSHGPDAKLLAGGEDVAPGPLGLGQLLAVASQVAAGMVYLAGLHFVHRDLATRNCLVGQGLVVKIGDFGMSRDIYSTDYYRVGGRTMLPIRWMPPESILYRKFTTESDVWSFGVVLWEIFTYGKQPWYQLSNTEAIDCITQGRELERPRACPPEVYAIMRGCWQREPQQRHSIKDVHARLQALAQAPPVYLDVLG
Sequence of off-target kinases (Homo sapiens, UniProt P10721, Y823D) (P10721 26-976 Y823D): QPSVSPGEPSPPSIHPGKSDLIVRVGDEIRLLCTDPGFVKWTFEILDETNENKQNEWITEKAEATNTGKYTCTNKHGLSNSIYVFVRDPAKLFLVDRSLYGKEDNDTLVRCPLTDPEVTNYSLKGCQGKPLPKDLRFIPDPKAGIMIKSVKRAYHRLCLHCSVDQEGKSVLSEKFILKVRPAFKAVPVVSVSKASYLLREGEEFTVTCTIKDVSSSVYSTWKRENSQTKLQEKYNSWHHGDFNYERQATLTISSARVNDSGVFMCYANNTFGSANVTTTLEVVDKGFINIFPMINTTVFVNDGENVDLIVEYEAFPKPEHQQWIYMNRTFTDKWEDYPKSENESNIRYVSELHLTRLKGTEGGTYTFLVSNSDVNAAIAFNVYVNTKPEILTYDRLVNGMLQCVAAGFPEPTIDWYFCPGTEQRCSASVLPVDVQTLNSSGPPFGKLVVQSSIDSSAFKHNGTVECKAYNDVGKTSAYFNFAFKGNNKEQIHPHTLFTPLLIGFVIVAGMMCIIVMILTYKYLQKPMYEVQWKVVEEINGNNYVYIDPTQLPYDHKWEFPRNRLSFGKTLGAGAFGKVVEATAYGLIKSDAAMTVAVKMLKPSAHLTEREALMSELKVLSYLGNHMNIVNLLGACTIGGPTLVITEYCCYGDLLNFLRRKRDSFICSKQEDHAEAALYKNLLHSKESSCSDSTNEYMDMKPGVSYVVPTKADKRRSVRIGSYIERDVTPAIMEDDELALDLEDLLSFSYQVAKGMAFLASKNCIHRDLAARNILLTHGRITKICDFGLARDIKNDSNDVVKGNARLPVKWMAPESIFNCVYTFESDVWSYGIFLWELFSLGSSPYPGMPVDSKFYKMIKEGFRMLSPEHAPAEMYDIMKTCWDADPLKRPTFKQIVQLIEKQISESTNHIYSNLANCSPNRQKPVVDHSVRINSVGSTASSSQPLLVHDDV

As for `N#Cc1cc(-c2ncnc(Nc3ccc(N4CCN(C5COC5)CC4)cc3)n2)ccc1OC1CCOCC1` [Compound 1, 5-(4-((4-(4-(oxetan-3-yl)piperazin-1-yl)phenyl)amino)-1,3,5-triazin-2-yl)-2-((tetrahydro-2H-pyran-4-yl)oxy)benzonitrile], the inhibition on off-target kinases [1] (read-out: % Inhibition 1) came to 16%; on off-target kinases [1] (read-out: % Inhibition 2), 20%; on off-target kinases [1] (read-out: % Inhibition Avg), 18%; at off-target kinases [2] (read-out: % Inhibition 1) it was 10%; at off-target kinases [2] (read-out: % Inhibition 2), 13%; on off-target kinases [2] (read-out: % Inhibition Avg), 12%. For the same compound, the inhibition on off-target kinases [3] (read-out: % Inhibition 1) came out at 47%; at off-target kinases [3] (read-out: % Inhibition 2) it was 59%; at off-target kinases [3] (read-out: % Inhibition Avg), 53%; on off-target kinases [4] (read-out: % Inhibition 1) it was 5%; at off-target kinases [4] (read-out: % Inhibition 2), 5%; at off-target kinases [4] (read-out: % Inhibition Avg), 5%. Also, the inhibition was 58% on off-target kinases [5] (read-out: % Inhibition 1); 60% on off-target kinases [5] (read-out: % Inhibition 2); 59% at off-target kinases [5] (read-out: % Inhibition Avg); 4% on off-target kinases [6] (read-out: % Inhibition 1); -2% on off-target kinases [6] (read-out: % Inhibition 2); 1% at off-target kinases [6] (read-out: % Inhibition Avg).

By inhibition is commonly meant the drop in the measured response relative to a control, in per cent.
